Here are results for two molecules from patent US10981881B2, “FXR (NR1H4) modulating compounds” (Gilead Sciences, Inc., priority 2016, dated 2021).

Each structure is given as a SMILES string.

Data set [1] is described as follows: Metabolite ID assay in human liver microsomes. It counts as in vitro ADME. Conditions: human liver microsomes 1 mg/mL, 1 mM NADPH, 0, 30, 60 minutes. The method, then: The metabolic stability of Example 3 and Comparative Example 1 in human liver microsomes was conducted according to the following procedure. Human liver microsomes (35 μL protein concentration 20 mg/mL), 350 μL of 100 mM potassium phosphate buffer (pH 7.4), 245 μL of deionized water and 0.7 μL of compound stock solution (5 mM) were combined in a 1.5 mL microcentrifuge tube. The tube was sealed and gently vortexed for 10 seconds, then placed in an Eppendorf ThermoMixer C and pre-warmed at 37° C. with shaking at 1100 rpm for 5 minutes.
NADPH solution (70 μL; 10 mM in water) was added while shaking, the mixture was aspirated several times with pipet, and 200 μL was removed to a fresh 1.5 mL microcentrifuge tube on ice containing 200 μL of cold acetonitrile. […]
The chilled aliquots were centrifuged at 14,300 rpm in a microcentrifuge for 10 minutes at 10° C., then the supernatant was transferred to a deepwell (1 mL) 96 well plate and sealed with a silicon mat. […] 20 μL samples were analyzed by UPLC-MS in order to identify and quantify the metabolites (Agilent 1290 G4220 binary pump UPLC with Agilent G1316 TCC column oven; Waters Acquity UPLC BEH C18 (130 Å pore size, 1.7 μm particle size, 2.1×50 mm) column held at 40° C.; Agilent 1290 G4212 DAD diode array with wavelength range 190 to 400 nm; Thermo Electron Orbitrap Elite mass spectrometer in FTMS positive mode). […]

In data set [2] the test system is FGF19. To be noted: cynomolgus monkey, in vivo, po, 300 mg/kg.
Protocol: In vivo pharmacodynamics of a representative compound of Formula (I) and a comparative example compound were determined as follows.
Each dosing group consisted of three male Cynomolgus monkeys. At dosing, the animals weighed between 2.5 and 4.4 kg.
The test articles were administered to the monkeys via oral gavage at 5 mL/kg. Prior to withdrawal, the gavage tube was flushed with approximately 10 mL of water.
Venous blood samples were taken at specified time points after dosing from each animal. The blood samples were collected and transferred into tubes containing potassium (K2) EDTA anticoagulant.
The FGF19 ELISA assay kit from BioVendor (product number RD191107200R) was used to determine FGF19 concentrations in the collected blood samples.
An aliquot of 50 μL of each plasma sample from the 10 and 30 mg/kg dosing groups and the t=0 samples from the 100 and 300 mg/kg groups were treated with 200 μL of acetonitrile (ACN) containing internal standard. […] Samples exceeding the calibration range of the instrument were diluted and re-analyzed. […]
An API 5000 triple quadrupole mass spectrometer from AB Sciex, Foster City, Calif. was used in multiple reaction monitoring mode to quantify the compounds.

On to `O=C(O)c1cnc(N2CC(O)(c3ccc(OCc4c(-c5c(Cl)cccc5Cl)noc4C4CC4)cc3Cl)C2)c(F)c1` [Comparative Example 1], for which the “formation of diol metabolite M1” value in data set [1] is recorded as “metabolized to a diol compound (M1)”. Regarding `O=C(O)c1cnc(N2CC(O)(c3ccc(OCc4c(-c5c(Cl)cc(F)cc5Cl)noc4C4CC4)cc3Cl)C2)c(F)c1` [Example 3, 6-(3-(2-chloro-4-((5-cyclopropyl-3-(2,6-dichloro-4-fluorophenyl)isoxazol-4-yl)methoxy)phenyl)-3-hydroxyazetidin-1-yl)-5-fluoronicotinic acid], in data set [2], the “maximal plasma AUC achieved” value is “comparable”. Moreover, the “plasma FGF19 Cmax” value in data set [2] (male) stood at 16 ng/mL.
